Converted amounts (≈) assume the structure as drawn.

What all share (assay type): physicochemical
Series [1] is described as follows: Solubility in toluene (Compound Properties, Table 1). Particulars: organic solvent or mixture.
Series [2] can be described thus: Solubility as observed during work-up of the synthesis. Particulars: for solubility of the isolated solid (in words): in toluene and dichloromethane (DCM). As to the method: To 2.0 g of dichlorobathophenanthroline (5 mM) from Example 1 was added 3.0 g (11 mM) boronic acid. To this was added 0.15 g Pd2 DBA3 (0.15 mM), 0.1 g tricyclohexylphosphine (0.35 mM) and 3.75 g potassium phosphate (17 mM), and all were dissolved into 30 mL dioxane and 15 mL water. This was mixed and heated in a glove box at 100° C. for 1 hr, then warmed gently (minimum rheostat setting) under nitrogen overnight. On reaching about 80° C. the mixture was a tan brown slurry which slowly became clear brown with a dense precipitate. As the solution refluxed (air condensor) a white powdery precipitate formed. The mixture was cooled and removed from the glove box. The dioxane was removed by evaporation and additional water added. A light brown gummy solid was isolated by filtration and washed with water. […] The product was Compound 4.
Take 2.0 g of dichloro-phen (8 mM) in glove box and add 4.7 g (17 mM) boronic acid. Add 0.15 g Pd2 DBA3 (0.15 mM), 0.1 g tricyclohexylphosphine (0.35 mM) and 3.75 g potassium phosphate (17 mM) and dissolve all into 30 mL dioxane and 15 mL water. Mix and heat in glove box in mantle at 100 C for 1 hr then warm gently (minimum rheostat setting) under nitrogen overnight. Solution immediately is dark purple but on reaching ˜80 C it is a tan brown slurry which slowly becomes clear brown. As the solution refluxes (air condensor) it remains clear brown. Cool and work up by removing from glove box and evaporate out the dioxane then add more water. Filter off light brown gummy solid and wash with water. […] The structure was confirmed by NMR analysis to be Compound 14:
Take 2.5 g of dichloro-phen (10 mM) in glove box and add 8.0 g (22 mM) boronic ester. Add 0.30 g Pd2 DBA3 (0.30 mM), 0.2 g tricylcohexylphosphine (0.70 mM) and 7.5 g potassium phosphate (34 mM) and dissolve all into 60 mL dioxane and 30 mL water. Mix and heat in glove box in mantle at 100 C for 1 hr then warm gently (minimum rheostat setting) under nitrogen overnight. Solution immediately is dark purple but on reaching ˜80 C it is a tan brown slurry which slowly becomes clear brown. […]

A short description of series [3]: Solubility in anisole (footnotes of Table 1). Particulars: organic solvent or mixture.

Usually solubility stands for the dissolved amount per volume that the medium holds. As for `c1ccc(-c2cc(-c3cccc(-n4c5ccccc5c5ccccc54)c3)nc3c2ccc2c(-c4ccccc4)cc(-c4cccc(-n5c6ccccc6c6ccccc65)c4)nc23)cc1` [Compound 1], the solubility in series [1] stood at 4800 µg/mL (≈ 5.89 mM). On to `c1ccc(-c2cc(-c3ccc(N(c4ccccc4)c4ccccc4)cc3)c3ccc4c(-c5ccc(N(c6ccccc6)c6ccccc6)cc5)cc(-c5ccccc5)nc4c3n2)cc1` [Compound 2], for which the solubility in series [1] was found to be 7600 µg/mL (≈ 9.28 mM). Still for that read-out and setting: the figure for `c1ccc(-c2cc(-c3ccc(-c4cccc5ccccc45)cc3)nc3c2ccc2c(-c4ccccc4)cc(-c4ccc(-c5cccc6ccccc56)cc4)nc23)cc1` [Compound 3] is 4500 µg/mL (≈ 6.11 mM). For the compound `c1ccc(-c2cc(-c3ccc(N(c4ccccc4)c4ccccc4)cc3)nc3c2ccc2c(-c4ccccc4)cc(-c4ccc(N(c5ccccc5)c5ccccc5)cc4)nc23)cc1` [Compound 4], the “solubility of the isolated solid (in words)” value in series [2] is given as “dissolved well”. For the same compound, the solubility in series [1] was found to be 31300 µg/mL (≈ 38.2 mM).

With `c1ccc(-c2ccccc2-c2cc(-c3ccccc3)c3ccc4c(-c5ccccc5)cc(-c5ccccc5-c5ccccc5)nc4c3n2)cc1` [Compound 9], in series [1], the solubility was 25600 µg/mL (≈ 40.2 mM). With `Fc1ccccc1-c1cc(-c2ccccc2)c2ccc3c(-c4ccccc4)cc(-c4ccccc4F)nc3c2n1` [Compound 10], the solubility in series [1] turned out to be 22200 µg/mL (≈ 42.6 mM). As to `c1ccc(-c2cc(-c3c4ccccc4c(-c4ccc(-c5cccc6ccccc56)cc4)c4ccccc34)nc3c2ccc2c(-c4ccccc4)cc(-c4c5ccccc5c(-c5ccc(-c6cccc7ccccc67)cc5)c5ccccc45)nc23)cc1` [Compound 11], in series [1], the solubility was found to be 10100 µg/mL (≈ 9.27 mM). Still for that read-out and setting: the figure for `c1ccc(-c2ccc3c(c2)c2cc(-c4ccccc4)ccc2n3-c2cccc(-c3cc(-c4ccccc4)c4ccc5c(-c6ccccc6)cc(-c6cccc(-n7c8ccc(-c9ccccc9)cc8c8cc(-c9ccccc9)ccc87)c6)nc5c4n3)c2)cc1` [Compound 12] is 22800 µg/mL (≈ 20.4 mM); for `c1ccc(-c2cc(-c3ccc(-c4ccc5ccccc5c4)cc3)nc3c2ccc2c(-c4ccccc4)cc(-c4ccc(-c5ccc6ccccc6c5)cc4)nc23)cc1` [Compound 13] it is 2000 µg/mL (≈ 2.71 mM).

Regarding `c1ccc(N(c2ccccc2)c2ccc(-c3ccnc4c3ccc3c(-c5ccc(N(c6ccccc6)c6ccccc6)cc5)ccnc34)cc2)cc1` [Compound 14, 4,7-bis(4-diphenylaminophenyl)-1,10-phenanthroline], the “solubility of the isolated solid (in words)” value in series [2] is on record as “dissolves well”. In the case of `c1cc(-c2ccnc3c2ccc2c(-c4cccc(-n5c6ccccc6c6ccccc65)c4)ccnc23)cc(-n2c3ccccc3c3ccccc32)c1` [Compound 15], the “solubility of the product (in words)” value in series [2] (solvent not stated, observed at chromatography/crystallisation) is recorded as “extremely soluble”. In series [1], the solubility stood at 20000 µg/mL (≈ 30.2 mM). As for `c1ccc(-c2cccc(-c3cc(-c4ccccc4)c4ccc5c(-c6ccccc6)cc(-c6cccc(-c7ccccc7)c6)nc5c4n3)c2)cc1` [Compound 16], the results for the solubility in series [1] and in series [3] were 800 µg/mL (≈ 1.26 mM) and 5000 µg/mL (≈ 7.85 mM), respectively. Regarding `c1ccc(-c2cc(-c3ccccc3)c3ccc4c(-c5ccccc5)cc(-c5cccc6ccccc56)nc4c3n2)cc1` [Compound 17], the solubility in series [1] was 4200 µg/mL (≈ 7.86 mM).

As for `c1ccc(-c2cc(-c3ccccc3)c3ccc4c(-c5ccccc5)cc(-c5ccc6ccccc6c5)nc4c3n2)cc1` [Compound 18], the solubility in series [1] was 2300 µg/mL (≈ 4.3 mM). Consider `c1ccc(N(c2ccccc2)c2cccc(-c3ccnc4c3ccc3c(-c5cccc(N(c6ccccc6)c6ccccc6)c5)ccnc34)c2)cc1` [Compound 20], for which, in series [1], the solubility was 32200 µg/mL (≈ 48.3 mM). For `c1ccc(-c2cc(-c3ccc4ccccc4c3)nc3c2ccc2c(-c4ccccc4)cc(-c4ccc5ccccc5c4)nc23)cc1` [Compound 21], the solubility in series [1] came to 1000 µg/mL (≈ 1.71 mM); in series [3] it was 3000 µg/mL (≈ 5.13 mM).
